These results are taken from patent publication US7667036B2, “Pyrazolo[1,5-a]pyrimidine derivatives” (Teijin Pharma Limited, priority 2004, dated 2010).

For the assay, the target named is MAPKAP-K2 (Homo sapiens, UniProt P49137). Nature of the assay: MAPKAP-K2 enzyme activity inhibition assay, Method B (33P-ATP, MultiScreen-PH plate). The conditions noted are these: recombinant human MAPKAP-K2, 0.5% DMSO, 30 min room temperature, read-out: Inhibitory activity (MAPKAP-K2 IC50 class). It counts as biochemical. As to the method:
The assay of inhibitory activity was performed according to Method A described below for Compound No. 1, 2, 3, 4, 20, 21, 22, 23, 24, 25, 26, 79, 80 and 81, and Method B described below for the other compounds.
A compound was dissolved in […] to make its concentration to 20 mmol/L, and the resultant solution was stored at −20° C. The stock solution was sequentially diluted with DMSO to prepare a solution having a 200-fold concentration of the required range. Further the solution was diluted with water to 1:20 to prepare a solution having a 10-fold concentration of the required range, and an aliquot of 5 μL of each solution was used for every reaction with 50 μL. During the continuous dilution of all compounds, the final DMSO concentration was maintained at 0.5%. Compounds were routinely tested at a final concentration ranging from 100 μmol/L to 0.03 μmol/L, but were sometimes tested at a lower concentration depending upon their activity.
The reaction was initiated by adding 25 μL of a peptide substrate solution [60 μmol/L substrate peptide, 20 μmol/L ATP, 50 mmol/L Tris buffer (pH 7.5), 0.1 mmol/L EGTA, 0.1% β-mercaptoetanol, 20 mmol/L magnesium acetate, and 0.1 μCi [γ-33P]ATP (specific radio activity: approximately 110 TBq/mmol)] to 5 μL of a 5% DMSO solution of the test compound and subsequently adding 20 μL of a MAPKAP-K2 enzyme solution [10 mU recombinant human MAPKAP-K2, 50 mmol/L Tris buffer (pH 7.5), 0.1 mmol/L EGTA, 0.1% β-mercaptoethanol, 0.1% BSA]. After performing the reaction for 30 min at room temperature, an equivalent volume of 200 mmol/L phosphoric acid solution was added to terminate the reaction. Subsequently, 90 μL of the reaction product was adsorbed on a MultiScreen-PH Plate (Millipore) and then rinsed with 100 mmol/L phosphoric acid solution. After drying the plate, 30 μL of MicroScint-O (Packard BioScience) was added, and further the count per minute was measured by a scintillation counter to determine the inhibitory activity. The substrate peptide was Lys-Lys-Leu-Asn-Arg-Tlr-Leu-Ser-Val-Ala.
• % Control=(X−B)/(Tot−B)×100 • % Inhibition=100—% Control • X=count per minute of a test compound well • B=count per minute of a well without containing enzyme • Tot=count per minute of a well with DMSO solvent only, without containing the test compound (MAPKAP-K2 inhibitory activity) • IC50 value=the compound concentration at 50% inhibition

A word on the IC50: it is the midpoint of a concentration-inhibition curve.

MAPKAP-K2, sequence (P49137 whole entry): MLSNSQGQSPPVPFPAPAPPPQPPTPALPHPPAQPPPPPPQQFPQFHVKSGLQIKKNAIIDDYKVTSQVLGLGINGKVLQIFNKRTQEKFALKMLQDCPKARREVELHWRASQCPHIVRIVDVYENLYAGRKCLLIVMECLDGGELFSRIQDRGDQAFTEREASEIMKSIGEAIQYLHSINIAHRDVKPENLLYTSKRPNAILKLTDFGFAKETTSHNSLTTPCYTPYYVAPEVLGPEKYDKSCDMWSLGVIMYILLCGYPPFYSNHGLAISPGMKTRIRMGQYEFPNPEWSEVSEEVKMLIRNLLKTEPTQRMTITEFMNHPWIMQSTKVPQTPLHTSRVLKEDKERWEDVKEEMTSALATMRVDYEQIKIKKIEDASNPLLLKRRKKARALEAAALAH

For the compound `Cc1c(O[C@H]2CC[C@H](N)CC2)nc2ccnn2c1Nc1ccc(-c2cccc(N)c2)cc1` [Compound No. 93, N-4′-[5-(trans-4-aminocyclohexyloxy)-6-methylpyrazolo[1,5-a]pyrimidin-7-yl] biphenyl-3,4′-diamine], the IC50 is at most 2 µM.
With `CCOc1ccc(Nc2c(C)c(OCC3CCCNC3)nc3ccnn23)cc1` (stereo not shown) [compound 244] the figure was 2 to 20 µM.
`Cc1c(O[C@H]2CC[C@@H](N)CC2)nc2ccnn2c1Nc1ccc(O)cc1` [compound 78]: the concentration for half-maximal inhibition (IC50) is at most 2 µM.
Regarding `CC(=O)c1ccc(Nc2c(C)c(OC3CCCNC3)nc3ccnn23)cc1` (stereo not shown) [compound 62], the IC50 was in the range of 2 to 20 µM.
Turning to `CCOc1ccc(Nc2c(C)c(O[C@@H]3CN(C(=O)OCc4ccccc4)CC[C@H]3CC(=O)NCc3ccccc3)nc3ccnn23)cc1` [compound 87], the IC50 lay in the range of 20 to 100 µM.
On to `CCOc1ccc(Nc2c(C)c(OC3CC(C)(C)CC(C)(CN)C3)nc3ccnn23)cc1` (stereo not shown) [compound 44], for which the IC50 was in the range of 20 to 100 µM.
For the compound `CCOc1ccc(Nc2c(C)c(OCCCCN)nc3ccnn23)cc1` [compound 30], the IC50 was in the range of 2 to 20 µM.
With `COc1ccc(Nc2ccc(Nc3c(C)c(OC4CCCNC4)nc4ccnn34)cc2)cc1` (stereo not shown) [compound 59] the figure was at most 2 µM; with `CCc1c(O[C@H]2CC[C@@H](N)CC2)nc2ccnn2c1Nc1ccccc1F` [compound 9], 2 to 20 µM.
With `CCn1c2ccccc2c2cc(Nc3c(C)c(O[C@H]4CC[C@@H](N)CC4)nc4ccnn34)ccc21` [compound 65] the figure was at most 2 µM; with `Cc1c(O[C@H]2CC[C@@H](N)CC2)nc2ccnn2c1Nc1ccc(C#N)c(C(F)(F)F)c1` [compound 72], at most 2 µM; with `C=CCc1c(O[C@H]2CC[C@@H](N)CC2)nc2ccnn2c1Nc1ccc(F)c(Cl)c1` [compound 12], 2 to 20 µM.
On to `CSc1nc2ccc(Nc3c(C)c(O[C@H]4CC[C@@H](N)CC4)nc4ccnn34)cc2s1` [compound 46], for which the IC50 is at most 2 µM.
Take `Cc1c(OC2CCCNC2)nc2ccnn2c1Nc1cccc(NS(C)(=O)=O)c1` (stereo not shown) [compound 48]: the IC50 lay in the range of 2 to 20 µM.
With `Cc1c(O[C@H]2CC[C@@H](N)CC2)nc2ccnn2c1NC1CCCC1` [compound 271], the IC50 is 2 to 20 µM.
Turning to `COc1ccc(Nc2ccc(Nc3c(C)c(O[C@H]4CC[C@@H](N)CC4)nc4ccnn34)cc2)cc1` [compound 66], the IC50 was at most 2 µM.
For `CCOc1ccc(Nc2c(C)c(O[C@@H]3CC[C@H](C)NC3)nc3ccnn23)cc1` [compound 18], the IC50 lay within 20 to 100 µM.
With `Cc1c(OC2CCCNC2)nc2ccnn2c1Nc1ccc(SC(F)(F)F)cc1` (stereo not shown) [compound 54] the figure was 2 to 20 µM; with `CCOc1ccc(Nc2c(C)c(O[C@@H]3CCNC3)nc3ccnn23)cc1` [compound 264], 20 to 100 µM; with `CCOc1ccc(Nc2c(C)c(OCC3CCCCN3)nc3ccnn23)cc1` (stereo not shown) [compound 245], 20 to 100 µM.
Next, `CCOc1ccc(Nc2c(C)c(OC3CCCNC3)nc3ccnn23)cc1` (stereo not drawn) [Compound No. 5, (dl)-(4-ethoxyphenyl)-[6-methyl-5-(pyperdin-3-yloxy)pyrazolo [1,5-a]pyrimidin-7-yl]-amine]: 2 to 20 µM; `CCOc1ccc(Nc2c(C)c(OC3CNCCC3CO)nc3ccnn23)cc1` (stereo not shown) [compound 58]: 2 to 20 µM; `Cc1c(OC2CCCNC2)nc2ccnn2c1Nc1ccc(C#N)c(C(F)(F)F)c1` (stereo not shown) [compound 53]: 20 to 100 µM.
As to `Cc1c(O[C@H]2CC[C@@H](N)CC2)nc2ccnn2c1Nc1cc(F)c(C#N)cc1F` [compound 68], the IC50 is 2 to 20 µM.
Take `CCOc1ccc(Nc2c(C)c(OCC(N)(CO)CO)nc3ccnn23)cc1` [compound 43]: the IC50 was in the range of 20 to 100 µM.
Consider `Cc1c(OC2CCNCC2)nc2ccnn2c1Nc1ccc(OCc2ccccc2)cc1` [compound 240], for which the IC50 is 2 to 20 µM.
On to `CCOc1ccc(Nc2c(C)c(OCC(C)N)nc3ccnn23)cc1` (stereo not shown) [compound 33], for which the IC50 lay within 20 to 100 µM.
With `Cc1c(OC2CCCNC2)nc2ccnn2c1Nc1cccc2cnccc12` (stereo not shown) [compound 63] the figure was 20 to 100 µM.
